Measured values as given in the NIST ThermoML archive (doi:10.1021/je060271a).
Several values for one entry are separate records, joined by “and”; a condition that tells them apart may be missing. Identical values can stand only once. Numbers after ± are expanded uncertainties.

Settings: Liquid, Vibrating tube method

CCCCCC(=O)OCC(COC(=O)CCCCC)(COC(=O)CCCCC)COC(=O)CCCCC [pentaerythritol tetrahexanoate]
mass density (323.14 K, 9872.1 kPa): 979.5 ± 1.2 kg/m3 | mass density (323.14 K, 9877.7 kPa): 979.4 ± 1.2 kg/m3 | mass density (323.14 K, 9882.8 kPa): 979.5 ± 1.2 kg/m3 | mass density (323.14 K, 9890.7 kPa): 979.4 ± 1.2 kg/m3 | mass density (323.14 K, 10279 kPa): 979.8 ± 1.2 kg/m3 | mass density (323.14 K, 10299 kPa): 979.7 ± 1.2 kg/m3 | mass density (323.14 K, 10325 kPa): 979.8 ± 1.2 kg/m3 | mass density (323.14 K, 10354 kPa): 979.8 ± 1.2 kg/m3 | mass density (323.14 K, 10377 kPa): 979.8 ± 1.2 kg/m3 | mass density (323.14 K, 10409 kPa): 979.8 ± 1.2 kg/m3 | mass density (323.14 K, 10437 kPa): 979.7 ± 1.2 kg/m3 | mass density (323.14 K, 10641 kPa): 980 ± 1.2 kg/m3 | mass density (323.14 K, 10798 kPa): 980.1 ± 1.2 kg/m3 | mass density (323.14 K, 10825 kPa): 980 ± 1.2 kg/m3 | mass density (323.14 K, 10850 kPa): 980 ± 1.2 kg/m3 | mass density (323.14 K, 10879 kPa): 980.1 ± 1.2 kg/m3 | mass density (323.14 K, 10908 kPa): 980.2 ± 1.2 kg/m3 | mass density (323.14 K, 10930 kPa): 980.1 ± 1.2 kg/m3 | mass density (323.14 K, 11644 kPa): 980.6 ± 1.2 kg/m3 | mass density (323.14 K, 11671 kPa): 980.7 ± 1.2 kg/m3 | mass density (323.14 K, 11694 kPa): 980.7 ± 1.2 kg/m3 | mass density (323.14 K, 11721 kPa): 980.6 ± 1.2 kg/m3 | mass density (323.14 K, 11748 kPa): 980.6 ± 1.2 kg/m3 | mass density (323.14 K, 11771 kPa): 980.7 ± 1.2 kg/m3 | mass density (323.14 K, 11798 kPa): 980.7 ± 1.2 kg/m3 | mass density (323.14 K, 11821 kPa): 980.9 ± 1.2 kg/m3 | mass density (323.14 K, 11872 kPa): 980.8 ± 1.2 kg/m3 | mass density (323.14 K, 13057 kPa): 981.6 ± 1.2 kg/m3 | mass density (323.14 K, 13085 kPa): 981.6 ± 1.2 kg/m3 | mass density (323.14 K, 13108 kPa): 981.6 ± 1.2 kg/m3 | mass density (323.14 K, 13136 kPa): 981.6 ± 1.2 kg/m3 | mass density (323.14 K, 13163 kPa): 981.7 ± 1.2 kg/m3 | mass density (323.14 K, 13448 kPa): 981.9 ± 1.2 kg/m3 | mass density (323.14 K, 13476 kPa): 981.9 ± 1.2 kg/m3 | mass density (323.14 K, 13500 kPa): 982 ± 1.2 kg/m3 | mass density (323.14 K, 13529 kPa): 981.8 ± 1.2 kg/m3 | mass density (323.14 K, 13553 kPa): 981.9 ± 1.2 kg/m3 | mass density (323.14 K, 13581 kPa): 982 ± 1.2 kg/m3 | mass density (323.14 K, 13609 kPa): 981.9 ± 1.2 kg/m3 | mass density (323.14 K, 13633 kPa): 982 ± 1.2 kg/m3 | mass density (323.14 K, 13661 kPa): 982 ± 1.2 kg/m3 | mass density (323.14 K, 13684 kPa): 982 ± 1.2 kg/m3 | mass density (323.14 K, 13711 kPa): 982.1 ± 1.2 kg/m3 | mass density (323.14 K, 13739 kPa): 982.1 ± 1.2 kg/m3 | mass density (323.14 K, 13763 kPa): 982 ± 1.2 kg/m3 | mass density (323.14 K, 13791 kPa): 982.1 ± 1.2 kg/m3 | mass density (323.14 K, 13814 kPa): 982 ± 1.2 kg/m3 | mass density (323.14 K, 13841 kPa): 982.2 ± 1.2 kg/m3 | mass density (323.14 K, 13868 kPa): 982.2 ± 1.2 kg/m3 | mass density (323.14 K, 14047 kPa): 982.2 ± 1.2 kg/m3 | mass density (323.14 K, 14070 kPa): 982.3 ± 1.2 kg/m3 | mass density (323.14 K, 14098 kPa): 982.2 ± 1.2 kg/m3 | mass density (323.14 K, 14122 kPa): 982.3 ± 1.2 kg/m3 | mass density (323.14 K, 14149 kPa): 982.4 ± 1.2 kg/m3 | mass density (323.14 K, 14177 kPa): 982.3 ± 1.2 kg/m3 | mass density (323.14 K, 14200 kPa): 982.3 ± 1.2 kg/m3 | mass density (323.14 K, 14229 kPa): 982.4 ± 1.2 kg/m3 | mass density (323.14 K, 14257 kPa): 982.3 ± 1.2 kg/m3 | mass density (323.14 K, 14281 kPa): 982.5 ± 1.2 kg/m3 | mass density (323.14 K, 14309 kPa): 982.5 ± 1.2 kg/m3 | mass density (323.14 K, 14333 kPa): 982.4 ± 1.2 kg/m3 | mass density (323.14 K, 14362 kPa): 982.5 ± 1.2 kg/m3 | mass density (323.14 K, 14385 kPa): 982.3 ± 1.2 kg/m3 | mass density (323.14 K, 14412 kPa): 982.5 ± 1.2 kg/m3 | mass density (323.14 K, 14435 kPa): 982.6 ± 1.2 kg/m3 | mass density (323.14 K, 14462 kPa): 982.5 ± 1.2 kg/m3 | mass density (323.14 K, 14491 kPa): 982.5 ± 1.2 kg/m3 | mass density (323.14 K, 14542 kPa): 982.6 ± 1.2 kg/m3 | mass density (323.14 K, 14860 kPa): 982.8 ± 1.2 kg/m3 | mass density (323.14 K, 14888 kPa): 982.8 ± 1.2 kg/m3 | mass density (323.14 K, 14912 kPa): 982.7 ± 1.2 kg/m3 | mass density (323.14 K, 14941 kPa): 982.8 ± 1.2 kg/m3 | mass density (323.14 K, 14965 kPa): 982.8 ± 1.2 kg/m3 | mass density (323.14 K, 14994 kPa): 982.8 ± 1.2 kg/m3 | mass density (323.14 K, 15019 kPa): 982.8 ± 1.2 kg/m3 | mass density (323.14 K, 15047 kPa): 982.8 ± 1.2 kg/m3 | mass density (323.14 K, 15070 kPa): 982.8 ± 1.2 kg/m3 | mass density (323.14 K, 15098 kPa): 983 ± 1.2 kg/m3 | mass density (323.14 K, 15126 kPa): 982.9 ± 1.2 kg/m3 | mass density (323.14 K, 15150 kPa): 982.9 ± 1.2 kg/m3 | mass density (323.14 K, 15177 kPa): 983.1 ± 1.2 kg/m3 | mass density (323.14 K, 15205 kPa): 983 ± 1.2 kg/m3 | mass density (323.14 K, 15229 kPa): 983 ± 1.2 kg/m3 | mass density (323.14 K, 32387 kPa): 993.4 ± 1.2 kg/m3 | mass density (323.14 K, 32388 kPa): 993.7 ± 1.2 kg/m3 and 993.6 ± 1.2 kg/m3 and 993.5 ± 1.2 kg/m3 | mass density (323.14 K, 32389 kPa): 993.5 ± 1.2 kg/m3 and 993.6 ± 1.2 kg/m3 | mass density (323.14 K, 32390 kPa): 993.5 ± 1.2 kg/m3 and 993.6 ± 1.2 kg/m3 | mass density (323.14 K, 32391 kPa): 993.5 ± 1.2 kg/m3 | mass density (323.14 K, 32392 kPa): 993.6 ± 1.2 kg/m3 | mass density (323.14 K, 32393 kPa): 993.5 ± 1.2 kg/m3 | mass density (323.14 K, 32394 kPa): 993.5 ± 1.2 kg/m3 | mass density (323.14 K, 32395 kPa): 993.5 ± 1.2 kg/m3 | mass density (323.14 K, 32396 kPa): 993.5 ± 1.2 kg/m3 and 993.6 ± 1.2 kg/m3 | mass density (323.14 K, 32398 kPa): 993.5 ± 1.2 kg/m3 | mass density (323.14 K, 32399 kPa): 993.5 ± 1.2 kg/m3 | mass density (323.14 K, 32400 kPa): 993.6 ± 1.2 kg/m3 | mass density (323.14 K, 32401 kPa): 993.6 ± 1.2 kg/m3 | mass density (323.14 K, 32402 kPa): 993.4 ± 1.2 kg/m3 | mass density (323.14 K, 32403 kPa): 993.5 ± 1.2 kg/m3 | mass density (323.14 K, 32404 kPa): 993.5 ± 1.2 kg/m3 | mass density (323.15 K, 370.6 kPa): 972.9 ± 1.2 kg/m3 | mass density (323.15 K, 372.9 kPa): 972.9 ± 1.2 kg/m3 | mass density (323.15 K, 374.8 kPa): 973 ± 1.2 kg/m3 | mass density (323.15 K, 377 kPa): 972.9 ± 1.2 kg/m3 | mass density (323.15 K, 379.5 kPa): 972.9 ± 1.2 kg/m3 | mass density (323.15 K, 381.7 kPa): 973 ± 1.2 kg/m3 | mass density (323.15 K, 444.1 kPa): 973 ± 1.2 kg/m3 | mass density (323.15 K, 447.6 kPa): 973 ± 1.2 kg/m3 | mass density (323.15 K, 450.5 kPa): 973 ± 1.2 kg/m3 | mass density (323.15 K, 453.3 kPa): 973 ± 1.2 kg/m3 | mass density (323.15 K, 456.4 kPa): 973.1 ± 1.2 kg/m3 | mass density (323.15 K, 460.3 kPa): 973 ± 1.2 kg/m3 | mass density (323.15 K, 463.4 kPa): 973 ± 1.2 kg/m3 | mass density (323.15 K, 466.7 kPa): 973 ± 1.2 kg/m3 | mass density (323.15 K, 470.7 kPa): 973 ± 1.2 kg/m3 | mass density (323.15 K, 473.8 kPa): 972.9 ± 1.2 kg/m3 | mass density (323.15 K, 520.2 kPa): 973 ± 1.2 kg/m3 | mass density (323.15 K, 524.4 kPa): 973.1 ± 1.2 kg/m3 | mass density (323.15 K, 528.6 kPa): 973.1 ± 1.2 kg/m3 | mass density (323.15 K, 532.7 kPa): 973 ± 1.2 kg/m3 | mass density (323.15 K, 536.7 kPa): 973 ± 1.2 kg/m3 | mass density (323.15 K, 542.1 kPa): 973 ± 1.2 kg/m3 | mass density (323.15 K, 546.3 kPa): 972.9 ± 1.2 kg/m3 | mass density (323.15 K, 551.3 kPa): 973.1 ± 1.2 kg/m3 | mass density (323.15 K, 555.7 kPa): 973.2 ± 1.2 kg/m3 | mass density (323.15 K, 560.2 kPa): 973.1 ± 1.2 kg/m3 | mass density (323.15 K, 564.7 kPa): 973 ± 1.2 kg/m3 | mass density (323.15 K, 567.1 kPa): 973 ± 1.2 kg/m3 | mass density (323.15 K, 567.3 kPa): 973.1 ± 1.2 kg/m3 | mass density (323.15 K, 568.2 kPa): 973 ± 1.2 kg/m3 | mass density (323.15 K, 569.7 kPa): 973.1 ± 1.2 kg/m3 | mass density (323.15 K, 571.8 kPa): 973.1 ± 1.2 kg/m3 | mass density (323.15 K, 573.7 kPa): 973.1 ± 1.2 kg/m3 | mass density (323.15 K, 575.6 kPa): 973.1 ± 1.2 kg/m3 | mass density (323.15 K, 592.7 kPa): 973.1 ± 1.2 kg/m3 | mass density (323.15 K, 594.8 kPa): 973.2 ± 1.2 kg/m3 | mass density (323.15 K, 596.6 kPa): 973.1 ± 1.2 kg/m3 | mass density (323.15 K, 598.6 kPa): 973.1 ± 1.2 kg/m3 | mass density (323.15 K, 601.2 kPa): 973 ± 1.2 kg/m3 | mass density (323.15 K, 603.4 kPa): 973 ± 1.2 kg/m3 | mass density (323.15 K, 605.2 kPa): 973.1 ± 1.2 kg/m3 | mass density (323.15 K, 607.4 kPa): 973.1 ± 1.2 kg/m3 | mass density (323.15 K, 609.9 kPa): 973 ± 1.2 kg/m3 | mass density (323.15 K, 612 kPa): 973.1 ± 1.2 kg/m3 | mass density (323.15 K, 614 kPa): 973.1 ± 1.2 kg/m3
